Key:
human ADAMTS4 [1] = target: T1, human ADAMTS4 (Homo sapiens (Human), UniProt O75173); assay: hADAMTS-4 TBIS-1 cleavage assay, Protocol 2; type: biochemical
rnADAMTS-5 (1-564-6H) = rnADAMTS-5 (1-564-6H) (Rattus norvegicus (Rat), UniProt Q6TY19); assay: Rat ADAMTS-5 TBIS-1 cleavage assay; type: biochemical; conditions: 120 min at 37° C.; read-out: Rat ADAMTS-5 potency IC50
human ADAMTS-5 [2] = target: T2, human ADAMTS-5 (Homo sapiens (Human), UniProt Q9UNA0); assay: hADAMTS-5 TBIS-1 cleavage assay, Protocol 2; type: biochemical; conditions: 45 min at 37° C., read-out: ADAMTS5 potency IC50
T2 sequence (Q9UNA0 262-930): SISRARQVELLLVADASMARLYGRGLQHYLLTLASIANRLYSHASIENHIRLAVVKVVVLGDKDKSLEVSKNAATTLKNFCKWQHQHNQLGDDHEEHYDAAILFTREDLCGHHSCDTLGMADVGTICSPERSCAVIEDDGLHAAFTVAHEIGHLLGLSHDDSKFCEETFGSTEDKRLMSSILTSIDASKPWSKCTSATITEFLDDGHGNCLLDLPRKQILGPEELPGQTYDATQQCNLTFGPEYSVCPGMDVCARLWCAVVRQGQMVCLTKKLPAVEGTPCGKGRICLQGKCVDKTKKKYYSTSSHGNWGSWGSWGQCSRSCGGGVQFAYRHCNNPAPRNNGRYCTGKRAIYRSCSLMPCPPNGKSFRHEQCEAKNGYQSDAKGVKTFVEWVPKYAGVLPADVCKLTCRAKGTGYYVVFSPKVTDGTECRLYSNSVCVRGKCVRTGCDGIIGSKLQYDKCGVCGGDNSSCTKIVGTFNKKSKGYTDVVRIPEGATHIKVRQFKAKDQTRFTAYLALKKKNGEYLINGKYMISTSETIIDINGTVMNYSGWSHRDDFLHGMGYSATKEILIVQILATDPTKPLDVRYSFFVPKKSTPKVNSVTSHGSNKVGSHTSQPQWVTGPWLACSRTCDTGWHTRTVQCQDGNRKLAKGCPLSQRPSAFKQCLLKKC

human ADAMTS-5 [3] = target: T2, human ADAMTS-5; assay: hADAMTS-5 TBIS-1 cleavage assay, Protocol 3; type: biochemical; conditions: 90 min at 37° C., read-out: hADAMTS-5 potency IC50
Experimental: (§2) The reaction is initiated by adding to the assay plate TBIS-1 (10 μL, 4.5 μM, Anaspec) in the same buffer.
Finally, the fluorescence is read on the Envision (Perkin Elmer) after an incubation of 90 min at 37° C. (Excitation 485 nm, emission 530).

human ADAMTS6 = human ADAMTS6 (Homo sapiens (Human), UniProt Q9UKP5); assay: hADAMTS-6 fluorescent based protease assay (520 MMP FRET substrate XII); type: biochemical; conditions: 37° C. for 2 h; read-out: hADAMTS-6 potency IC50
Sequence of human ADAMTS6 (Q9UKP5 other isoform, or with tags, fused parts or gaps): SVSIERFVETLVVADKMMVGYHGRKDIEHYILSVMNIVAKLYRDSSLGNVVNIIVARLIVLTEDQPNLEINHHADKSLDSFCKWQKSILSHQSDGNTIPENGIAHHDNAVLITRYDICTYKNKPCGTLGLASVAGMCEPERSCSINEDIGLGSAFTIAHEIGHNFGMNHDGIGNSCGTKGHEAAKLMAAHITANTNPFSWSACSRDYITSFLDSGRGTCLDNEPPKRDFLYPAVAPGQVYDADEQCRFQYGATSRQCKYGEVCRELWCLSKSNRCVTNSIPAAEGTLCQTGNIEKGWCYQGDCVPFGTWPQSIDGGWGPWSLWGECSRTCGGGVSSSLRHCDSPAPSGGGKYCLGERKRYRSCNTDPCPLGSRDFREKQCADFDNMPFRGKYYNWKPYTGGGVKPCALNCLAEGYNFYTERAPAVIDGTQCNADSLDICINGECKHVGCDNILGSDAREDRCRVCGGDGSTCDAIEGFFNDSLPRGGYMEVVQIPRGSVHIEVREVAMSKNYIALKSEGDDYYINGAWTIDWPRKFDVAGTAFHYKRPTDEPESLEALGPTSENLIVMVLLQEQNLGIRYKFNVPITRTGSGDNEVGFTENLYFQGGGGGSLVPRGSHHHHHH
Procedure, shortened: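 ADAMTS6 (0.73 nM final) in 25 mM Tris pH 8.0, 0.05% CHAPS, 2.5 mM CaCl2 with compound dilution series (top 20 μM, 1/5 steps). Reaction started with 520 MMP FRET Substrate XII, incubated 2 h at 37 °C. Substrate cleavage read by fluorescence ex485/em530; IC50 determined.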

human MMP13 [4] = target: T3, human MMP13 (Homo sapiens (Human), UniProt P45452); assay: hMMP13 assay, Protocol 1 (390 MMP FRET Substrate I, Chemicon enzyme); type: biochemical; conditions: Protocol 1, human MMP13 (Chemicon), read-out: hMMP-13 potency IC50
Experimental: (§1) Human MMP13 is preactivated by incubated the enzyme in the same buffer complemented with 1 mM freshly prepared p-Aminophenylmercuric acetate (AMPA) for 1 h at 37° C.

human TACE = human TACE (Homo sapiens (Human), UniProt P78536); assay: biochemical
Sequence of human TACE (P78536 215-671): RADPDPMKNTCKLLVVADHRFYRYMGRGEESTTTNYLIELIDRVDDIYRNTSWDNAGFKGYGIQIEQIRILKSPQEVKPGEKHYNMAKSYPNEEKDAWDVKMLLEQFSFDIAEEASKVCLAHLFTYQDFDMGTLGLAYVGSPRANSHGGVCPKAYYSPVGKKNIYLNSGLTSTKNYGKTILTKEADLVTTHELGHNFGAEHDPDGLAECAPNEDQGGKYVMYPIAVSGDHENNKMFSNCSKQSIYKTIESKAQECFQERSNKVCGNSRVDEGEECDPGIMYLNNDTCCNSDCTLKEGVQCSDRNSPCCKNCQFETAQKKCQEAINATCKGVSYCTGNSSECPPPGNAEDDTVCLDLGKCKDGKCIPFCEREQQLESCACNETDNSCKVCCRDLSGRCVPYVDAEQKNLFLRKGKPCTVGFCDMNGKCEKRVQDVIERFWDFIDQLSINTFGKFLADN
Experimental: Finally, the fluorescence is read on the Envision (Perkin Elmer) after an incubation of 75 min at room temperature (Excitation 485 nm, Emission 530).

human ADAMTS4 [5] = target: T1, human ADAMTS4; assay: hADAMTS-4 TBIS-1 cleavage assay, Protocol 1; type: biochemical; conditions: 60 min at room temperature, read-out: ADAMTS4 potency IC50
Experimental: as §2
Finally, the fluorescence is read on the Envision (Perkin Elmer) after an incubation of 60 min at room temperature (Excitation 485 nm, emission 535).

human MMP13 [6] = target: T3, human MMP13; assay: hMMP13 assay, Protocol 2 (390 MMP FRET Substrate I, Enzo enzyme); type: biochemical; conditions: Protocol 2, human MMP13 (Enzo Life Sciences), read-out: hMMP-13 potency IC50
Experimental: as §1

human MMP14 = human MMP14 (Homo sapiens (Human), UniProt P50281); assay: hMMP14 assay (390 MMP FRET Substrate I); type: biochemical; conditions: human MMP14 (Biomol), read-out: hMMP-14 potency IC50
Experimental: The basis for the assay is the cleavage of the substrate 390 MMP FRET Substrate I (Anaspec Cat #AS-27076) by human MMP14 (Biomol, Cat #SE-259).
The reaction is initiated by adding to the assay plate 390 MMP FRET Substrate I (10 μL, 2.5 μM) in the same buffer.
Finally, the fluorescence is read on the Envision (Perkin Elmer) after an incubation of 60 min at room temperature (Excitation 485 nm, Emission 530).

[7] = Protocol 2, 180 min at 37° C., read-out: ADAMTS4 potency IC50

T1 sequence (O75173 213-837): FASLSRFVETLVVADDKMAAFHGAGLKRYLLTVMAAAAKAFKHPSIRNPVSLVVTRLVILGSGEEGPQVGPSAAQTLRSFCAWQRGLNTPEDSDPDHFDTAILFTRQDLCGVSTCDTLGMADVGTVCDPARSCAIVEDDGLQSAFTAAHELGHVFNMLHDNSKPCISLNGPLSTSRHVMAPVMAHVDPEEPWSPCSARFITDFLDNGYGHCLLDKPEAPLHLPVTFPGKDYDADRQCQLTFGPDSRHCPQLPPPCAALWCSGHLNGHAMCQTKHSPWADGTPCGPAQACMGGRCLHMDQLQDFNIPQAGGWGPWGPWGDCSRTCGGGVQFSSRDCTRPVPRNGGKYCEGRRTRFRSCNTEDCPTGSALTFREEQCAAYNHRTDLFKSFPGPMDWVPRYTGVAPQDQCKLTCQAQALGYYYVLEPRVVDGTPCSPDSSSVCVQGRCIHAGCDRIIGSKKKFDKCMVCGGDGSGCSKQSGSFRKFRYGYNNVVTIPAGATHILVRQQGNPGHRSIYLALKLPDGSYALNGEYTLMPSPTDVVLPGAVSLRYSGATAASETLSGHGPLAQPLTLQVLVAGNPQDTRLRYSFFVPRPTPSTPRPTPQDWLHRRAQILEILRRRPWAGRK
Sequence of rnADAMTS-5 (1-564-6H) (Q6TY19 entry or part of it): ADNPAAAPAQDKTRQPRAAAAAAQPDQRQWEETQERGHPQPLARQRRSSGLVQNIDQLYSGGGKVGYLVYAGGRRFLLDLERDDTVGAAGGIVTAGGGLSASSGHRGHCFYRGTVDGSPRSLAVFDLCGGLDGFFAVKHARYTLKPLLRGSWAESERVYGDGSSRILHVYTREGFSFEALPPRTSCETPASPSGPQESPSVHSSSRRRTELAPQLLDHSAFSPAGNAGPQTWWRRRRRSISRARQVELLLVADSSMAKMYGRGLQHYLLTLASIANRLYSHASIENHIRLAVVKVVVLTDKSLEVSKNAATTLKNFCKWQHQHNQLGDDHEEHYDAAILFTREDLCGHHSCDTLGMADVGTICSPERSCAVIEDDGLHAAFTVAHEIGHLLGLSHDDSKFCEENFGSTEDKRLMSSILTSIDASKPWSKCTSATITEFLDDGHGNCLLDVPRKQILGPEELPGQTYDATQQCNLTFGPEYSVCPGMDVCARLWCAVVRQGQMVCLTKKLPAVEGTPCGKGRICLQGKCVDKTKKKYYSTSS

Compound	IC50 (human ADAMTS4 [1]; [7])	IC50 (rnADAMTS-5 (1-564-6H))	IC50 (human ADAMTS-5 [2])	IC50 (human ADAMTS-5 [3])	IC50 (human ADAMTS6)	IC50 (human MMP13 [4])	IC50 (human TACE)	IC50 (human ADAMTS4 [5])	IC50 (human ADAMTS4 [1])	IC50 (human MMP13 [6])	IC50 (human MMP14)
COc1ccccc1N1CCN(C(=O)CCC2(C)NC(=O)NC2=O)CC1 (centres unmarked) [Cpd 7, 5-[3-[4-(2-methoxyphenyl)piperazin-1-yl]-3-oxo-propyl]-5-methyl-imidazolidine-2,4-dione]	–	–	> 100 nM	> 100 nM	> 100 nM	–	–	–	–	–	–
COc1ccc(N2CCN(C(=O)CCC3(C)NC(=O)NC3=O)CC2)cc1 (centres unmarked) [Cpd 5, 5-[3-[4-(4-methoxyphenyl)piperazin-1-yl]-3-oxo-propyl]-5-methyl-imidazolidine-2,4-dione]	–	–	> 100 nM	–	> 100 nM	–	–	–	–	–	–
COc1cccc(N2CCN(C(=O)CCC3(c4ccccn4)NC(=O)NC3=O)CC2)c1 (centres unmarked) [Cpd 8, 5-[3-[4-(3-methoxyphenyl)piperazin-1-yl]-3-oxo-propyl]-5-(2-pyridyl)imidazolidine-2,4-dione]	–	> 100 nM	> 100 nM	–	> 100 nM	> 100 nM	> 100 nM	–	50 to 100 nM	–	–
CC1(CCC(=O)N2CCN(c3ccccc3OC(F)(F)F)CC2)NC(=O)NC1=O (centres unmarked) [Cpd 4, 5-methyl-5-[3-oxo-3-[4-[2-(trifluoromethoxy)phenyl]piperazin-1-yl]propyl]imidazolidine-2,4-dione]	–	–	> 100 nM	> 100 nM	> 100 nM	–	–	–	–	–	–
CC1(CCC(=O)N2CCN(c3ccc(OC(F)(F)F)cc3)CC2)NC(=O)NC1=O (centres unmarked) [Cpd 3, 5-methyl-5-[3-oxo-3-[4-[4-(trifluoromethoxy)phenyl]piperazin-1-yl]propyl]imidazolidine-2,4-dione]	> 100 nM	–	> 100 nM	–	> 100 nM	> 100 nM	> 100 nM	–	–	–	–
COc1cc(N2CCN(C(=O)CCC3(C)NC(=O)NC3=O)C[C@@H]2C)cc(Cl)c1F (some centres unmarked) [Cpd 53, 5-[3-[(3 S)-4-(3-chloro-4-fluoro-5-methoxy-phenyl)-3-methyl-piperazin-1l-yl]-3-oxo-propyl]-5-methyl-imidazolidine-2,4-dione]	> 100 nM	> 100 nM	–	50 to 100 nM	0.001 to 25 nM	> 100 nM	> 100 nM	–	–	> 100 nM	> 100 nM
COc1cc(F)cc(N2CCN(C(=O)CCC3(C4CC4)NC(=O)NC3=O)CC2)c1 (centres unmarked) [Cpd 15, 5-cyclopropyl-5-[3-[4-(3-fluoro-5-methoxy-phenyl)piperazin-1-yl]-3-oxo-propyl]imidazolidine-2,4-dione]	–	50 to 100 nM	50 to 100 nM	50 to 100 nM	> 100 nM	> 100 nM	> 100 nM	–	50 to 100 nM	–	–
COc1cc(N2CCN(C(=O)[C@@H](CO)C[C@@]3(C)NC(=O)NC3=O)CC2)cc(F)c1F [Cpd 56, (5R)-5-[(2R)-3-[4-(3,4-difluoro-5-methoxy-phenyl)piperazin-1-yl]-2-(hydroxymethyl)-3-oxo-propyl]-5-methyl-imidazolidine-2,4-dione]	–	25 to 50 nM	–	25 to 50 nM	0.001 to 25 nM	–	> 100 nM	–	25 to 50 nM	> 100 nM	> 100 nM
COC[C@]1(C[C@H](C)C(=O)N2CCN(c3cc(F)c(F)c(OC)c3)CC2)NC(=O)NC1=O [Cpd 59, (5 S)-5-[(2S)-3-[4-(3,4-difluoro-5-methoxy-phenyl)piperazin-1-yl]-2-methyl-3-oxo-propyl]-5-(methoxymethyl)imidazolidine-2,4-dione]	–	0.001 to 25 nM	–	0.001 to 25 nM	0.001 to 25 nM	–	> 100 nM	–	25 to 50 nM	> 100 nM	> 100 nM
CCOc1cccc(N2CCN(C(=O)CCC3(C)NC(=O)NC3=O)CC2)c1 (centres unmarked) [Cpd 16, 5-[3-[4-(3-ethoxyphenyl)piperazin-1l-yl]-3-oxo-propyl]-5-methyl-imidazolidine-2,4-dione]	–	–	> 100 nM	–	> 100 nM	–	–	–	–	–	–
COc1cccc(N2CCN(C(=O)CCC3(C)NC(=O)NC3=O)CC2)c1 (centres unmarked) [Cpd 1, 5-[3-[4-(3-methoxyphenyl)piperazin-1-yl]-3-oxo-propyl]-5-methyl-imidazolidine-2,4-dione]	–	–	> 100 nM	–	> 100 nM	–	> 100 nM	> 100 nM	–	–	–

More lines, main results first:

IC50 (human ADAMTS4 [1]; [7])	IC50 (rnADAMTS-5 (1-564-6H))	IC50 (human ADAMTS-5 [2])	IC50 (human ADAMTS-5 [3])	IC50 (human ADAMTS6)	IC50 (human MMP13 [4])	IC50 (human TACE)	IC50 (human ADAMTS4 [5])	Compound	IC50 (human ADAMTS4 [1])	IC50 (human MMP13 [6])	IC50 (human MMP14)
> 100 nM	> 100 nM	> 100 nM	> 100 nM	25 to 50 nM	> 100 nM	> 100 nM	–	COc1cc(N2CCN(C(=O)CCC3(C)NC(=O)NC3=O)CC2)cc(F)c1F (centres unmarked) [Cpd 14, 5-[3-[4-(3,4-difluoro-5-methoxy-phenyl)piperazin-1-yl]-3-oxo-propyl]-5-methyl-imidazolidine-2,4-dione]	–	–	–
–	> 100 nM	> 100 nM	–	> 100 nM	–	> 100 nM	25 to 50 nM	COc1cccc(N2CCN(C(=O)CCC3(C4CC4)NC(=O)NC3=O)CC2)c1 (centres unmarked) [Cpd 2, 5-cyclopropyl-5-[3-[4-(3-methoxyphenyl)piperazin-1-yl]-3-oxo-propyl]imidazolidine-2,4-dione]	–	–	–
–	> 100 nM	> 100 nM	–	25 to 50 nM	> 100 nM	> 100 nM	–	COc1cc(Cl)cc(N2CCN(C(=O)CCC3(C)NC(=O)NC3=O)CC2)c1 (centres unmarked) [Cpd 13, 5-[3-[4-(3-chloro-5-methoxy-phenyl)piperazin-1-yl]-3-oxo-propyl]-5-methyl-imidazolidine-2,4-dione]	–	–	–
–	> 100 nM	> 100 nM	> 100 nM	50 to 100 nM	> 100 nM	> 100 nM	–	COc1cc(N2CCN(C(=O)CCC3(C)NC(=O)NC3=O)CC2)ccc1F (centres unmarked) [Cpd 9, 5-[3-[4-(4-fluoro-3-methoxy-phenyl)piperazin-1-yl]-3-oxo-propyl]-5-methyl-imidazolidine-2,4-dione]	–	–	–
> 100 nM	> 100 nM	> 100 nM	> 100 nM	25 to 50 nM	> 100 nM	> 100 nM	–	COc1cc(N2CCN(C(=O)CCC3(C)NC(=O)NC3=O)CC2)ccc1Cl (centres unmarked) [Cpd 10, 5-[3-[4-(4-chloro-3-methoxy-phenyl)piperazin-1-yl]-3-oxo-propyl]-5-methyl-imidazolidine-2,4-dione]	–	–	–
> 100 nM	> 100 nM	50 to 100 nM	50 to 100 nM	0.001 to 25 nM	> 100 nM	> 100 nM	–	COc1cc(N2CCN(C(=O)CCC3(C4CC4)NC(=O)NC3=O)CC2)cc(F)c1F (centres unmarked) [Cpd 18, 5-cyclopropyl-5-[3-[4-(3,4-difluoro-5-methoxy-phenyl)piperazin-1-yl]-3-oxo-propyl]imidazolidine-2,4-dione]	–	> 100 nM	> 100 nM
> 100 nM	> 100 nM	> 100 nM	–	> 100 nM	> 100 nM	> 100 nM	–	COc1cc(OC)cc(N2CCN(C(=O)CCC3(C)NC(=O)NC3=O)CC2)c1 (centres unmarked) [Cpd 11, 5-[3-[4-(3,5-dimethoxyphenyl)piperazin-1-yl]-3-oxo-propyl]-5-methyl-imidazolidine-2,4-dione]	–	–	–
> 100 nM	> 100 nM	> 100 nM	> 100 nM	> 100 nM	> 100 nM	> 100 nM	–	COc1cc(N2CCN(C(=O)CCC3(C4CC4)NC(=O)NC3=O)CC2)ccc1F (centres unmarked) [Cpd 17, 5-cyclopropyl-5-[3-[4-(4-fluoro-3-methoxy-phenyl)piperazin-1-yl]-3-oxo-propyl]imidazolidine-2,4-dione]	–	–	–
–	> 100 nM	> 100 nM	–	> 100 nM	> 100 nM	> 100 nM	–	COc1cccc(N2CCN(C(=O)CCC3(c4cccnc4)NC(=O)NC3=O)CC2)c1 (centres unmarked) [Cpd 6, 5-[3-[4-(3-methoxyphenyl)piperazin-1-yl]-3-oxo-propyl]-5-(3-pyridyl)imidazolidine-2,4-dione]	–	–	–
–	> 100 nM	> 100 nM	–	> 100 nM	> 100 nM	> 100 nM	–	COc1cc(F)cc(N2CCN(C(=O)CCC3(C)NC(=O)NC3=O)CC2)c1 (centres unmarked) [Cpd 12, 5-[3-[4-(3-fluoro-5-methoxy-phenyl)piperazin-1-yl]-3-oxo-propyl]-5-methyl-imidazolidine-2,4-dione]	–	–	–
